Data published in PubChem BioAssay AID504606 (National Center for Advancing Translational Sciences (NCATS), 2011).
In brackets after ≈: the same amount, converted by molar mass.

Test system: kinetic aqueous solubility, PBS pH 7.4, LC-UV/MS
Experiment: Inhibitors of HPGD: Aqueous Solubility Profiling
Conditions: active compounds read high

| Compound | solubility |
| --- | --- |
| Cc1cccc(-n2cnc3cc(C(=O)N4CCCCC4)ccc32)c1 | 3 µM (≈ 0.958 µg/mL) |
| Cc1cc(-c2nnc3n2CCCCC3)c(C)n1-c1ccccc1 | 35.9 µM (≈ 11 µg/mL) |
